Measurements from patent US8658798B2, “Herbicide triazolylpyridine ketones” (Bayer Cropscience AG, priority 2007, dated 2014).

Columns and labels:
Format in all cases: in vivo
[1] = tested on: livid amaranth (Amaranthus); assay: Herbicide effect test against field weed (soil spray treatment before germination), Test example 1; conditions: dosage 500 g ai/ha, 2 weeks after treatment, 100% = complete death, 0% = no effect
Description: (§1) • Preparing preparation of active compound • Carrier: DMF 5 parts by weight • Emulsifier: benzyloxy polyglycol ether 1 part by weight
(§2) A preparation of active compound is obtained as an emulsion by mixing 1 part by weight of active compound with the above amounts of carrier and emulsifier. A prescribed amount of preparation is diluted with water.
(§3) In a greenhouse, seeds of field weeds [livid amaranth (Amaranthus), green bristle grass (Setaria)] were sown on the surface layer of 16 cm^2 pots filled with field soil (sandy loam) , and covered with soil. Here, one kind of grass was sown for one pot. Immediately after sowing, the prescribed diluted solutions which were prepared according to the above preparation method of the preparation of respective active compounds were sprayed to soil. After 2 weeks from the treatment, the herbicide effect of each of the compounds was examined. In the evaluation of herbicide effect, complete death was evaluated as 100%, and the case of no herbicide effect was evaluated as 0%. When the herbicide effect is 80% or more, such active compounds are evaluated to have practical utility as a herbicide.

[2] = tested on: green bristle grass (Setaria); assay: as above; conditions: dosage 500 g ai/ha, 2 weeks after treatment, 100% = complete death, 0% = no effect
Description: as §1, §2, §3

[3] = tested on: livid amaranth (Amaranthus); assay: Selective herbicide effect test to field crop (soil spray treatment before germination), Test example 3, herbicide effect; conditions: 2 weeks after treatment, 100% = complete death
Description: as §1, §2
(§4) In a greenhouse, seeds of field crops [wheat (Triticum), corn (Zea), soy bean (Glycine)] and weeds [barnyardgrass (Echinochloa), southern crabgrass (Digitaria), livid amaranth (Amaranthus), fat hen (Chenopodium)] were sown on the surface layer of 16 cm^2 pots filled with field soil (sandy loam), and covered with soil. After 1 day, the prescribed diluted solutions of preparations of respective active compounds, which were prepared according to Test example 1, were sprayed to the soil. After 2 weeks from the treatment, phytotoxicity to crops and herbicide effect of respective compounds were examined. In the evaluation of herbicide effect and phytotoxicity, complete death was evaluated as 100%, and the case of no herbicide effect or no phytotoxicity was evaluated as 0%. When the herbicide effect is 80% or more, such active compounds are evaluated to have practical utility as a herbicide. When phytotoxicity is 20% or less, such active compounds are evaluated to have excellent safety as a herbicide.

fat hen (Chenopodium) = assay: as above; conditions: 2 weeks after treatment, 100% = complete death
Description: as §1, §2, §4

[4] = tested on: southern crabgrass (Digitaria); assay: as above; conditions: 2 weeks after treatment, 100% = complete death
Description: as §1, §2, §4

[5] = tested on: barnyardgrass (Echinochloa); assay: as above; conditions: 2 weeks after treatment, 100% = complete death
Description: as §1, §2, §4

wheat (Triticum) = assay: Selective herbicide effect test to field crop (soil spray treatment before germination), Test example 3, phytotoxicity; conditions: 2 weeks after treatment, 100% = complete death, 0% = no phytotoxicity
Description: as §1, §2, §4

soy bean (Glycine) = assay: as above; conditions: 2 weeks after treatment, 100% = complete death, 0% = no phytotoxicity
Description: as §1, §2, §4

corn (Zea) = assay: as above; conditions: 2 weeks after treatment, 100% = complete death, 0% = no phytotoxicity
Description: as §1, §2, §4

Green bristle grass = assay: Herbicide effect test against field weed (foliage spray treatment after germination), Test example 2; conditions: foliage spray treatment after germination (2nd-3rd leaf stage); dosage 500 g ai/ha; 2 weeks after treatment; 100% = complete death
Description: as §1, §2, §3
In a greenhouse, to 16 cm^2 pots filled with field soil (sandy loam), seedling plants (2nd-3rd leaf stage) of a field weed (Green bristle grass) were transplanted. After 1 day, the prescribed diluted solutions of preparations of respective active compounds, which were prepared according to the above Test example 1, were sprayed from the upside of the plant body. After 2 weeks from the treatment, the herbicide effect of each of the compounds was examined. Evaluation of herbicidal effect was carried out similarly to Test example 1.

corn = assay: Selective herbicide effect test to field crop (foliage spray treatment after germination), Test example 4, phytotoxicity; conditions: 14 days after spraying, 100% = complete death, 0% = no phytotoxicity
Description: as §1, §2, §4
(§5) In a greenhouse, respective seeds of weeds (barnyardgrass, southern crabgrass, fat hen, and livid amaranth) and crops (wheat, corn, and soy bean) were sown on the surface layer of pots filled with field soil, and covered with soil. After one day and 10 days (average 2nd leaf stage for weeds) from the sowing and covering the seeds with soil, the prescribed diluted solutions of preparations of respective active compounds, which were prepared according to Test example 1, were uniformly sprayed onto the soil surfaces of respective test pots and the foliage parts of the plant bodies.
(§6) After 14 days from the spraying, the degree of herbicide effect was examined. Evaluation of herbicide effect and phytotoxicity were carried out similarly to Test example 3.

soy bean = assay: as above; conditions: 14 days after spraying, 100% = complete death, 0% = no phytotoxicity
Description: as §1, §2, §4, §5, §6

wheat = assay: as above; conditions: 14 days after spraying, 100% = complete death, 0% = no phytotoxicity
Description: as §1, §2, §4, §5, §6

livid amaranth = assay: Selective herbicide effect test to field crop (foliage spray treatment after germination), Test example 4, herbicide effect; conditions: 14 days after spraying, 100% = complete death, 0% = no effect
Description: as §1, §2, §4, §5, §6

fat hen = assay: as above; conditions: 14 days after spraying, 100% = complete death, 0% = no effect
Description: as §1, §2, §4, §5, §6

southern crabgrass = assay: as above; conditions: 14 days after spraying, 100% = complete death, 0% = no effect
Description: as §1, §2, §4, §5, §6

barnyardgrass = assay: as above; conditions: 14 days after spraying, 100% = complete death, 0% = no effect
Description: as §1, §2, §4, §5, §6

SMILES | Herbicide effect, Livid amaranth ([3]; dosage 320 g/ha) | herbicide effect, Fat hen (fat hen (Chenopodium); dosage 320 g/ha) | herbicide effect, Southern crabgrass ([4]; dosage 320 g/ha) | herbicide effect, Barnyardgrass ([5]; dosage 320 g/ha) | Herbicide effect, Green bristle grass (Green bristle grass) | phytotoxicity, Corn (corn; 320 g/ha) | phytotoxicity, Soy bean (soy bean; 320 g/ha) | phytotoxicity, Wheat (wheat; 320 g/ha) | Herbicide effect, Livid amaranth (livid amaranth; 320 g/ha) | herbicide effect, Fat hen (fat hen; 320 g/ha) | herbicide effect, Southern crabgrass (southern crabgrass; 320 g/ha) | herbicide effect, Barnyardgrass (barnyardgrass; 320 g/ha) | further results
Cc1nc(-n2cncn2)ccc1C(=O)C1C(=O)CCCC1=O [1-1, 2-{[2-methyl-6-(1H-1,2,4-triazol-1-yl)pyridin-3-yl]carbonyl}cyclohexan-1,3-dione] | 80% | 100% | 100% | 100% | – | – | – | – | – | – | – | – | Herbicide effect, Livid amaranth [1]: 100%; Herbicide effect, Green bristle grass [2]: 100%
O=C1CCCC(O)=C1C(=O)c1ccc(-n2cncn2)nc1COCC(F)(F)F [1-28] | 90% | 100% | 100% | 100% | – | – | – | – | – | – | – | – | phytotoxicity, Wheat (wheat (Triticum); dosage 320 g/ha): 0%; phytotoxicity, Soy bean (soy bean (Glycine); dosage 320 g/ha): 10%; phytotoxicity, Corn (corn (Zea); dosage 320 g/ha): 5%
CSCc1nc(-n2cncn2)ccc1C(=O)C1=C(O)CCCC1=O [1-36] | – | – | – | – | 100% | 10% | 50% | 0% | 80% | 90% | 100% | 100% | –
CS(=O)(=O)Cc1nc(-n2cncn2)ccc1C(=O)C1=C(O)CCCC1=O [1-56] | – | – | – | – | – | 50% | 50% | 0% | 80% | 90% | 100% | 100% | –
COCCOCc1nc(-n2cncn2)ccc1C(=O)C1=C(O)CCCC1=O [1-66] | – | – | – | – | 90% | 50% | 50% | 10% | 100% | 100% | 100% | 100% | –
Cc1nc(-n2cncn2)ccc1C(=O)C1=C(O)CCC(C)C1=O (stereo not shown) [1-115] | 90% | 100% | 100% | 100% | 100% | – | – | – | – | – | – | – | phytotoxicity, Wheat (wheat (Triticum); dosage 320 g/ha): 0%; phytotoxicity, Soy bean (soy bean (Glycine); dosage 320 g/ha): 10%; phytotoxicity, Corn (corn (Zea); dosage 320 g/ha): 0%
Cc1nc(-n2cncn2)ccc1C(=O)C1=C(O)CCC(C)(C)C1=O [1-457] | – | – | – | – | 100% | 50% | 40% | 20% | 100% | 100% | 100% | 100% | –
Cc1nc(-n2cncn2)ccc1C(=O)C1=C(O)C(C)(C)C(=O)C(C)(C)C1=O [1-685] | – | – | – | – | – | – | – | – | – | – | – | – | phytotoxicity, Wheat (wheat (Triticum); dosage 80 g/ha): 40%; phytotoxicity, Soy bean (soy bean (Glycine); dosage 80 g/ha): 10%; phytotoxicity, Corn (corn (Zea); dosage 80 g/ha): 30%; Herbicide effect, Livid amaranth ([3]; dosage 80 g/ha): 90%; herbicide effect, Fat hen (fat hen (Chenopodium); dosage 80 g/ha): 90%; herbicide effect, Southern crabgrass ([4]; dosage 80 g/ha): 100%; herbicide effect, Barnyardgrass ([5]; dosage 80 g/ha): 100%
Cc1nc(-n2cncn2)ccc1C(=O)c1cnn(C)c1O [2-1] | – | – | – | – | – | – | – | – | – | – | – | – | Herbicide effect, Livid amaranth [1]: 100%; Herbicide effect, Green bristle grass [2]: 100%; phytotoxicity, Corn (corn; 80 g/ha): 5%; phytotoxicity, Soy bean (soy bean; 80 g/ha): 50%; phytotoxicity, Wheat (wheat; 80 g/ha): 0%; Herbicide effect, Livid amaranth (livid amaranth; 80 g/ha): 100%; herbicide effect, Fat hen (fat hen; 80 g/ha): 90%; herbicide effect, Southern crabgrass (southern crabgrass; 80 g/ha): 95%; herbicide effect, Barnyardgrass (barnyardgrass; 80 g/ha): 100%
Cc1nc(-n2cncn2)ccc1C(=O)c1c(C)nn(C)c1O [2-229] | – | – | – | – | – | 50% | 60% | 10% | 100% | 90% | 100% | 100% | Herbicide effect, Livid amaranth [1]: 100%; Herbicide effect, Green bristle grass [2]: 100%
Cc1nc(-n2cncn2)ccc1C(=O)c1cnoc1C1CC1 [3-115] | 90% | 100% | 100% | 100% | 100% | – | – | – | – | – | – | – | phytotoxicity, Wheat (wheat (Triticum); dosage 320 g/ha): 5%; phytotoxicity, Soy bean (soy bean (Glycine); dosage 320 g/ha): 20%; phytotoxicity, Corn (corn (Zea); dosage 320 g/ha): 10%
